Tests used:
human LPA1 = human LPA1 (Homo sapiens, UniProt Q92633); test: In vitro functional assay of lysophosphatidic acid receptor 1 activity (calcium flux, Fluo-4 NW, LPA 18:1 at EC80); assay type: cell-based; settings: B103 cells stably expressing human LPA1
Description: Primary compound plates were prepared in 100% DMSO (Sigma-Aldrich), secondary compound plates were prepared at 10× concentration in DMEM (Invitrogen), and tertiary compound plates were prepared at 3× concentration in assay buffer containing HBSS (no Ca^+2/Mg^+2, Invitrogen) and 0.1% BSA (Sigma-Aldrich). Fluo-4 NW calcium assay dye (Invitrogen) was prepared as per manufacturer's recommendations in assay buffer. B103 cells stably expressing human LPA1 (J. Chun lab, UCSD) were grown to confluency in DMEM media (Invitrogen) containing 10% FBS (ATCC), 10% Penicillin-Streptomycin (Sigma-Aldrich) and 50 μg Geneticin (Sigma-Aldrich), and detached with Accutase (Sigma-Aldrich) prior to assay. The freshly detached cells were resuspended in growth media and plated in black, clear-bottom 96-well plates (Costar) containing compound (i.e., secondary compound plate) at a density of 5×10^4 cells/well. Once plated, cells were left at room temperature for 30 minutes and then transferred to a 37° C., 5% CO2 incubator for 24 hours. […] Finally, lysophosphatidic acid (18:1) at the EC80 concentration was added and calcium flux measured using FlexStation 3 (Molecular Devices). Sigmoidal dose-response curves were generated by measuring […] over 45 sec and calculating the area under the curve. […]

[1] = Rat PK: brain penetration after PO dosing; assay type: in vivo; settings: 10 mg/kg, Rat PK: Dosing PO @ 10 mpk; for Kp uu: read-out: Kp,uu (unbound brain-to-plasma partitioning)

Sequence of human LPA1 (Q92633 whole entry): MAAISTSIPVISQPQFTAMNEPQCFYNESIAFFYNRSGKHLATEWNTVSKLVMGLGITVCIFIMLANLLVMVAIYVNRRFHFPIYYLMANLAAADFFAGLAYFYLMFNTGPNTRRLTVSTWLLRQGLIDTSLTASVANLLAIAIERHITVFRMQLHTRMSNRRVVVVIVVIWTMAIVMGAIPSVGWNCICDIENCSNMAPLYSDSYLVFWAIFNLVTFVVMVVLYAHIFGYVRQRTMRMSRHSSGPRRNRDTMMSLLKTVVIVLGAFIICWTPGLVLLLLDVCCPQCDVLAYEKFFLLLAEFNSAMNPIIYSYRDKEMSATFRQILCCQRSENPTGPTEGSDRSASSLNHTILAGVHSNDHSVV

IC50 (human LPA1) [nM] | concentration at 2 h [1] [nM] | Kp uu [1] | SMILES
10 to 100 | 290 | 0.05 | COc1ccc(NC(=O)N(c2cnccc2C(C)C)[C@H]2CC[C@H](C(=O)O)CC2)c(OC(F)F)n1 [Example 1, trans-4-(3-(2-(difluoromethoxy)-6-methoxypyridin-3-yl)-1-(4-isopropylpyridin-3-yl)ureido)cyclohexane-1-carboxylic acid]
10 to 100 | 2100 | 0.15 | COc1ccc(NC(=O)N(c2ncccc2C(C)C)[C@H]2CC[C@H](C(=O)O)CC2)c(OC(F)F)n1 [Example 2, trans-4-(3-(2-(difluoromethoxy)-6-methoxypyridin-3-yl)-1-(3-isopropylpyridin-2-yl)ureido)cyclohexane-1-carboxylic acid]

Reference: patent US20260272906A1, “PERIPHERALLY RESTRICTED LPAR1 ANTAGONISTS AND USES THEREOF” (CONTINEUM THERAPEUTICS, INC., priority 2024, published 2026)
